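GI50 = concentration required for 50% inhibition of growth. TGI is the concentration that stops growth completely.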
Assays:
Assay in all cases: growth of human tumour cells (NCI), 384-well format
[1] = system: SK-MEL-28 melanoma
[2] = system: CAKI-1 renal
[3] = system: PC-3 prostate
[4] = system: HOP-92 NSCLC
[5] = system: UACC-62 melanoma
[6] = system: EKVX NSCLC
[7] = system: IGROV1 ovarian
[8] = system: COLO 205 colon
[9] = system: OVCAR-5 ovarian
[10] = system: SK-MEL-5 melanoma
[11] = system: OVCAR-8 ovarian
[12] = system: U251 glioblastoma
[13] = system: MCF7 breast
[14] = system: HT29 colon
[15] = system: MDA-MB-468 breast
[16] = system: HCT-116 colon
[17] = system: MALME-3M melanoma
[18] = system: SNB-19 CNS
[19] = system: T-47D breast
[20] = system: HS 578T breast
[21] = system: NCI-H23 lung
[22] = system: NCI/ADR-RES ovarian
[23] = system: SK-OV-3 ovarian
[24] = system: NCI-H226 lung
[25] = system: SNB-75 CNS
[26] = system: NCI-H460 NSCLC
[27] = system: RPMI-8226 leukemia
[28] = system: HOP-62 NSCLC
[29] = system: HL-60(TB) leukemia
[30] = system: HCT-15 colon
[31] = system: RXF 393 renal
[32] = system: KM12 colon
[33] = system: M14 melanoma
[34] = system: MOLT-4 leukemia
[35] = system: LOX IMVI melanoma
[36] = system: ACHN renal
[37] = system: SF-268 CNS
[38] = system: HCC-2998 colon
[39] = system: MDA-MB-435 melanoma
[40] = system: DU-145 prostate
[41] = system: SN12C renal
[42] = system: TK-10 renal
[43] = system: SR leukemia
[44] = system: SF-539 CNS
[45] = system: A549 NSCLC
[46] = system: OVCAR-4 ovarian
[47] = system: SF-295 CNS
[48] = system: NCI-H522 lung
[49] = system: UACC-257 melanoma
[50] = system: NCI-H322M lung
[51] = system: BT-549 breast
[52] = system: OVCAR-3 ovarian
[53] = system: MDA-MB-231 breast
[54] = system: A498 renal
[55] = system: 786-0 renal
[56] = system: UO-31 renal
[57] = system: SK-MEL-2 melanoma
[58] = system: SW-620 colon
[59] = system: K-562 leukemia

Compound: CCc1c[nH]c2ncnc(N3CC[C@@](N)(CNC(=O)c4ccc(F)cc4F)C3)c12
- GI50 [1]: 25.5 µM
- TGI [1]: > 100 µM
- GI50 [2]: 16.5 µM
- TGI [2]: > 100 µM
- GI50 [3]: 22.1 µM
- TGI [3]: > 100 µM
- GI50 [4]: 28.6 µM
- TGI [4]: > 100 µM
- GI50 [5]: 18.9 µM
- TGI [5]: 59.2 µM
- GI50 [6]: 28.6 µM
- TGI [6]: > 100 µM
- GI50 [7]: 6.09 µM
- TGI [7]: 32.4 µM
- GI50 [8]: 15.8 µM
- TGI [8]: 41.5 µM
- GI50 [9]: 17.1 µM
- TGI [9]: 76 µM
- GI50 [10]: 11 µM
- TGI [10]: 28.4 µM
- GI50 [11]: 41.3 µM
- TGI [11]: > 100 µM
- GI50 [12]: 37.4 µM
- TGI [12]: > 100 µM
- GI50 [13]: 12.7 µM
- TGI [13]: > 100 µM
- GI50 [14]: 29.1 µM
- TGI [14]: > 100 µM
- GI50 [15]: 13.9 µM
- TGI [15]: 55.5 µM
- GI50 [16]: 20.5 µM
- TGI [16]: > 100 µM
- GI50 [17]: 14.2 µM
- TGI [17]: 37.5 µM
- GI50 [18]: 61.9 µM
- TGI [18]: > 100 µM
- GI50 [19]: 35.3 µM
- TGI [19]: > 100 µM
- GI50 [20]: 14.9 µM
- TGI [20]: 33.7 µM
- GI50 [21]: 14.5 µM
- TGI [21]: 39.9 µM
- GI50 [22]: 89 µM
- TGI [22]: > 100 µM
- GI50 [23]: 13.6 µM
- TGI [23]: > 100 µM
- GI50 [24]: 20.2 µM
- TGI [24]: > 100 µM
- GI50 [25]: 31.3 µM
- TGI [25]: > 100 µM
- GI50 [26]: 11.3 µM
- TGI [26]: > 100 µM
- GI50 [27]: 14.2 µM
- TGI [27]: 54.7 µM
- GI50 [28]: 20 µM
- TGI [28]: 93 µM
- GI50 [29]: 15.7 µM
- TGI [29]: 29.4 µM
- GI50 [30]: 32 µM
- TGI [30]: > 100 µM
- GI50 [31]: 27.8 µM
- TGI [31]: > 100 µM
- GI50 [32]: 4.05 µM
- TGI [32]: > 100 µM
- GI50 [33]: 28.4 µM
- TGI [33]: > 100 µM
- GI50 [34]: 5.23 µM
- TGI [34]: 20.3 µM
- GI50 [35]: 18.9 µM
- TGI [35]: 47.3 µM
- GI50 [36]: 15.5 µM
- TGI [36]: 50 µM
- GI50 [37]: 48.3 µM
- TGI [37]: > 100 µM
- GI50 [38]: 18.8 µM
- TGI [38]: > 100 µM
- GI50 [39]: 31.4 µM
- TGI [39]: > 100 µM
- GI50 [40]: 23.2 µM
- TGI [40]: 94.1 µM
- GI50 [41]: 23.3 µM
- TGI [41]: 88.5 µM
- GI50 [42]: 13.5 µM
- TGI [42]: 42.8 µM
- TGI [43]: 0.816 µM
- GI50 [44]: 11.9 µM
- TGI [44]: > 100 µM
- GI50 [45]: 20.8 µM
- TGI [45]: 50.7 µM
- GI50 [46]: > 100 µM
- TGI [46]: > 100 µM
- GI50 [47]: 29.1 µM
- TGI [47]: > 100 µM
- GI50 [48]: 16.8 µM
- TGI [48]: 47.4 µM
- GI50 [49]: 16.5 µM
- TGI [49]: 37 µM
- GI50 [50]: 22 µM
- TGI [50]: 79.4 µM
- GI50 [51]: 10.9 µM
- TGI [51]: 24.9 µM
- GI50 [52]: 33.8 µM
- TGI [52]: > 100 µM
- GI50 [53]: 35.6 µM
- TGI [53]: > 100 µM
- GI50 [54]: 2.72 µM
- TGI [54]: 19.3 µM

Compound: Cn1cc(-c2ccc(CNc3cc(-c4cnc5cc(OCCCN6CCCC6)ccn45)ncn3)cc2)cn1
- GI50 [55]: 1.54 µM
- TGI [55]: 2.89 µM
- GI50 [1]: 1.82 µM
- TGI [1]: 3.22 µM
- GI50 [2]: 1.86 µM
- TGI [2]: 3.26 µM
- GI50 [3]: 1.7 µM
- TGI [3]: 3.28 µM
- GI50 [4]: 1.84 µM
- TGI [4]: 3.25 µM
- GI50 [5]: 1.83 µM
- TGI [5]: 3.23 µM
- GI50 [56]: 1.75 µM
- TGI [56]: 3.14 µM
- GI50 [6]: 1.67 µM
- TGI [6]: 3.06 µM
- GI50 [7]: 1.88 µM
- TGI [7]: 3.34 µM
- GI50 [8]: 2.01 µM
- TGI [8]: 3.45 µM
- GI50 [9]: 1.69 µM
- TGI [9]: 3.09 µM
- GI50 [10]: 1.49 µM
- TGI [10]: 2.82 µM
- GI50 [11]: 1.72 µM
- TGI [11]: 3.11 µM
- GI50 [12]: 1.79 µM
- TGI [12]: 3.2 µM
- GI50 [13]: 1.36 µM
- TGI [13]: 2.67 µM
- GI50 [14]: 0.969 µM
- TGI [14]: 2.15 µM
- GI50 [15]: 1.8 µM
- TGI [15]: 3.21 µM
- GI50 [57]: 1.84 µM
- TGI [57]: 3.24 µM
- GI50 [58]: 1.69 µM
- TGI [58]: 3.09 µM
- GI50 [16]: 1.63 µM
- TGI [16]: 3.02 µM
- GI50 [17]: 1.83 µM
- TGI [17]: 3.23 µM
- GI50 [18]: 1.74 µM
- TGI [18]: 3.41 µM
- GI50 [19]: 1.9 µM
- TGI [19]: 3.33 µM
- GI50 [20]: 1.58 µM
- TGI [20]: 2.93 µM
- GI50 [21]: 11.3 µM
- TGI [21]: 23.5 µM
- GI50 [23]: 1.8 µM
- TGI [23]: 3.21 µM
- GI50 [24]: 1.69 µM
- TGI [24]: 3.06 µM
- GI50 [25]: 1.79 µM
- TGI [25]: 3.19 µM
- GI50 [26]: 1.32 µM
- TGI [26]: 2.62 µM
- GI50 [28]: 1.63 µM
- TGI [28]: 3 µM
- GI50 [29]: 1.56 µM
- TGI [29]: 2.9 µM
- GI50 [30]: 1.77 µM
- TGI [30]: 3.2 µM
- GI50 [31]: 1.53 µM
- TGI [31]: 2.87 µM
- GI50 [32]: 1.85 µM
- TGI [32]: 3.29 µM
- GI50 [33]: 1.84 µM
- TGI [33]: 3.24 µM
- GI50 [34]: 1.5 µM
- TGI [34]: 2.83 µM
- GI50 [36]: 1.81 µM
- TGI [36]: 3.21 µM
- GI50 [37]: 1.85 µM
- TGI [37]: 3.28 µM
- GI50 [59]: 1.5 µM
- TGI [59]: 2.85 µM
- GI50 [39]: 1.77 µM
- TGI [39]: 3.17 µM
- GI50 [40]: 1.82 µM
- TGI [40]: 3.34 µM
- GI50 [41]: 1.77 µM
- TGI [41]: 3.16 µM
- GI50 [42]: 1.78 µM
- TGI [42]: 3.18 µM
- GI50 [43]: 1.69 µM
- TGI [43]: 3.07 µM
- GI50 [44]: 1.18 µM
- TGI [44]: 2.41 µM
- GI50 [45]: 1.82 µM
- TGI [45]: 3.23 µM
- GI50 [46]: 1.55 µM
- TGI [46]: 2.91 µM
- GI50 [47]: 1.81 µM
- TGI [47]: 3.22 µM
- GI50 [48]: 2.09 µM
- TGI [48]: 3.53 µM
- GI50 [49]: 1.53 µM
- TGI [49]: 2.87 µM
- GI50 [50]: 1.92 µM
- TGI [50]: 3.57 µM
- GI50 [51]: 1.62 µM
- TGI [51]: 2.98 µM
- GI50 [52]: 1.84 µM
- TGI [52]: 3.25 µM
- GI50 [53]: 1.61 µM
- TGI [53]: 2.97 µM
- GI50 [54]: 1.78 µM
- TGI [54]: 3.18 µM

From PubChem BioAssay (NCI)
